Measured values as given in PubChem BioAssay (NCI).
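Results reflect a 48-hour exposure of cells in 96-well plates to compound at five concentrations. TGI denotes the concentration required for complete inhibition of growth.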

Experiments:
Experiment in all cases: NCI tumour cell line growth inhibition, 48 h
NCI-H460 lung = test system: NCI-H460 lung
PC-3 prostate = test system: PC-3 prostate
SNB-19 CNS = test system: SNB-19 CNS
SK-OV-3 ovarian = test system: SK-OV-3 ovarian
NCI-H226 lung = test system: NCI-H226 lung
TK-10 renal = test system: TK-10 renal
HCC-2998 colon = test system: HCC-2998 colon
LOX IMVI melanoma = test system: LOX IMVI melanoma
HCT-15 colon = test system: HCT-15 colon
SNB-75 CNS = test system: SNB-75 CNS
T-47D breast = test system: T-47D breast
SK-MEL-2 melanoma = test system: SK-MEL-2 melanoma
MDA-N = test system: MDA-N
RXF 393 renal = test system: RXF 393 renal
UACC-257 melanoma = test system: UACC-257 melanoma
UO-31 renal = test system: UO-31 renal
UACC-62 melanoma = test system: UACC-62 melanoma
SK-MEL-5 melanoma = test system: SK-MEL-5 melanoma
MDA-MB-435 = test system: MDA-MB-435
MOLT-4 leukemia = test system: MOLT-4 leukemia
HOP-92 NSCLC = test system: HOP-92 NSCLC
RPMI-8226 leukemia = test system: RPMI-8226 leukemia
CAKI-1 renal = test system: CAKI-1 renal
HCT-116 colon = test system: HCT-116 colon
SK-MEL-28 melanoma = test system: SK-MEL-28 melanoma
A549 NSCLC = test system: A549 NSCLC
HT29 colon = test system: HT29 colon
HOP-62 NSCLC = test system: HOP-62 NSCLC
SR leukemia = test system: SR leukemia
M14 melanoma = test system: M14 melanoma
OVCAR-3 ovarian = test system: OVCAR-3 ovarian
OVCAR-4 ovarian = test system: OVCAR-4 ovarian
MDA-MB-231 breast = test system: MDA-MB-231 breast
SF-295 CNS = test system: SF-295 CNS
SW-620 colon = test system: SW-620 colon
NCI/ADR-RES ovarian = test system: NCI/ADR-RES ovarian
SN12C renal = test system: SN12C renal
BT-549 breast = test system: BT-549 breast
ACHN renal = test system: ACHN renal
A498 renal = test system: A498 renal
SF-539 CNS = test system: SF-539 CNS
EKVX NSCLC = test system: EKVX NSCLC
IGROV1 ovarian = test system: IGROV1 ovarian
OVCAR-5 ovarian = test system: OVCAR-5 ovarian
OVCAR-8 ovarian = test system: OVCAR-8 ovarian
DU-145 prostate = test system: DU-145 prostate
SF-268 CNS = test system: SF-268 CNS
NCI-H23 lung = test system: NCI-H23 lung
COLO 205 colon = test system: COLO 205 colon
MCF7 breast = test system: MCF7 breast
HS 578T breast = test system: HS 578T breast
NCI-H522 lung = test system: NCI-H522 lung
K-562 leukemia = test system: K-562 leukemia
786-0 renal = test system: 786-0 renal
HL-60(TB) leukemia = test system: HL-60(TB) leukemia
KM12 colon = test system: KM12 colon
MALME-3M melanoma = test system: MALME-3M melanoma
CCRF-CEM leukemia = test system: CCRF-CEM leukemia
U251 CNS = test system: U251 CNS

CCN(CC)CCNC(=O)c1cc2cc(NC(=O)c3cc4cc([N+](=O)[O-])ccc4[nH]3)ccc2[nH]1
TGI (NCI-H460 lung): > 100 µM
TGI (PC-3 prostate): > 100 µM
TGI (SNB-19 CNS): > 100 µM
TGI (SK-OV-3 ovarian): 71.4 µM
TGI (NCI-H226 lung): > 87.3 µM
TGI (TK-10 renal): 48.6 µM
TGI (HCC-2998 colon): > 73.6 µM
TGI (LOX IMVI melanoma): > 100 µM
TGI (HCT-15 colon): > 100 µM
TGI (SNB-75 CNS): > 100 µM
TGI (T-47D breast): > 100 µM
TGI (SK-MEL-2 melanoma): > 100 µM
TGI (MDA-N): > 100 µM
TGI (RXF 393 renal): > 100 µM
TGI (UACC-257 melanoma): > 87.1 µM
TGI (UO-31 renal): > 100 µM
TGI (UACC-62 melanoma): 87.5 µM
TGI (SK-MEL-5 melanoma): > 100 µM
TGI (MDA-MB-435): > 100 µM
TGI (MOLT-4 leukemia): > 100 µM
TGI (HOP-92 NSCLC): > 50.7 µM
TGI (RPMI-8226 leukemia): 9.63 µM
TGI (CAKI-1 renal): > 100 µM
TGI (HCT-116 colon): > 100 µM
TGI (SK-MEL-28 melanoma): 66.8 µM
TGI (A549 NSCLC): > 100 µM
TGI (HT29 colon): > 100 µM
TGI (HOP-62 NSCLC): > 100 µM
TGI (SR leukemia): > 100 µM
TGI (M14 melanoma): > 100 µM
TGI (OVCAR-3 ovarian): > 57 µM
TGI (OVCAR-4 ovarian): > 100 µM
TGI (MDA-MB-231 breast): > 100 µM
TGI (SF-295 CNS): 65.6 µM
TGI (SW-620 colon): > 58 µM
TGI (NCI/ADR-RES ovarian): > 100 µM
TGI (SN12C renal): > 100 µM
TGI (BT-549 breast): > 100 µM
TGI (ACHN renal): > 100 µM
TGI (A498 renal): > 82.7 µM
TGI (SF-539 CNS): > 49.7 µM
TGI (EKVX NSCLC): > 100 µM
TGI (IGROV1 ovarian): > 100 µM
TGI (OVCAR-5 ovarian): > 100 µM
TGI (OVCAR-8 ovarian): > 100 µM
TGI (DU-145 prostate): 31.8 µM
TGI (SF-268 CNS): > 100 µM
TGI (NCI-H23 lung): > 100 µM
TGI (COLO 205 colon): 28.9 µM
TGI (MCF7 breast): > 100 µM

CCOC(=S)SCC(=O)O
TGI (NCI-H460 lung): > 100 µM
TGI (PC-3 prostate): > 100 µM
TGI (HS 578T breast): > 100 µM
TGI (NCI-H522 lung): > 100 µM
TGI (SNB-19 CNS): > 100 µM
TGI (SK-OV-3 ovarian): > 100 µM
TGI (NCI-H226 lung): > 100 µM
TGI (TK-10 renal): > 100 µM
TGI (LOX IMVI melanoma): > 100 µM
TGI (HCT-15 colon): > 100 µM
TGI (SNB-75 CNS): > 100 µM
TGI (T-47D breast): > 100 µM
TGI (SK-MEL-2 melanoma): > 100 µM
TGI (MDA-N): > 100 µM
TGI (RXF 393 renal): > 100 µM
TGI (UACC-257 melanoma): > 100 µM
TGI (UO-31 renal): > 100 µM
TGI (UACC-62 melanoma): > 100 µM
TGI (SK-MEL-5 melanoma): > 100 µM
TGI (K-562 leukemia): > 100 µM
TGI (MDA-MB-435): > 100 µM
TGI (MOLT-4 leukemia): > 100 µM
TGI (HOP-92 NSCLC): > 100 µM
TGI (RPMI-8226 leukemia): > 100 µM
TGI (CAKI-1 renal): > 100 µM
TGI (HCT-116 colon): > 100 µM
TGI (SK-MEL-28 melanoma): > 100 µM
TGI (A549 NSCLC): > 100 µM
TGI (HT29 colon): > 100 µM
TGI (HOP-62 NSCLC): > 100 µM
TGI (SR leukemia): > 100 µM
TGI (M14 melanoma): > 100 µM
TGI (OVCAR-3 ovarian): > 100 µM
TGI (786-0 renal): > 100 µM
TGI (OVCAR-4 ovarian): > 100 µM
TGI (MDA-MB-231 breast): > 100 µM
TGI (SF-295 CNS): > 100 µM
TGI (SW-620 colon): > 100 µM
TGI (NCI/ADR-RES ovarian): > 100 µM
TGI (SN12C renal): > 100 µM
TGI (BT-549 breast): > 100 µM
TGI (ACHN renal): > 100 µM
TGI (HL-60(TB) leukemia): 5.74 µM
TGI (A498 renal): > 100 µM
TGI (KM12 colon): > 100 µM
TGI (SF-539 CNS): > 100 µM
TGI (EKVX NSCLC): > 100 µM
TGI (IGROV1 ovarian): > 100 µM
TGI (OVCAR-5 ovarian): > 100 µM
TGI (OVCAR-8 ovarian): > 100 µM
TGI (MALME-3M melanoma): > 100 µM
TGI (SF-268 CNS): > 100 µM
TGI (NCI-H23 lung): > 100 µM
TGI (COLO 205 colon): > 100 µM
TGI (MCF7 breast): > 100 µM
TGI (CCRF-CEM leukemia): 26.6 µM
TGI (U251 CNS): > 100 µM
